# From patent US20140154263A1, “Use of TAK1 Inhibitor to Achieve Glycemic Control in Mammals” (Connexios Life Sciences Pvt. Ltd., priority 2012, published 2014)
# What was measured:
# JNK [1] = experiment: JNK phosphorylation under inflammatory conditions in adipocytes; assay type: cell-based; settings: in response to inflammatory cytokine, FIG. 1
# rat islets = experiment: Glucose stimulated insulin secretion (GSIS) under inflammatory conditions; assay type: cell-based; settings: inflammatory condition (Infl), FIG. 25
# rat primary hepatocytes = experiment: Reactive oxygen species in rat primary hepatocytes; assay type: cell-based; settings: glucose, palmitate and inflammatory cytokines, FIG. 8
# From the text: Reactive oxygen species (ROS) are generated as metabolic byproducts, particularly as a byproduct of oxidative phosphorylation. Under normal conditions, the levels of ROS generated are low and tightly controlled, and can function as signaling intermediates.
# 3T3F442A pre adipocytes = experiment: Adipogenesis (TG levels) under inflammatory cytokines; assay type: cell-based; settings: differentiation with inflammatory cytokines, FIG. 3
# Protocol: Experiments were performed in which inflammatory cytokines were added to 3T3F442A pre adipocytes (UD) and TG levels were estimated as a measure of adipogenesis. Differentiation was carried out in the presence and absence of TAK-1 inhibitor.
# 3T3F442A cells = experiment: Secreted adiponectin in adipocytes; assay type: cell-based; settings: inflammation (inf) plus metabolic overload (pal), FIG. 4
# From the text: Adiponectin is secreted by insulin sensitive mature adipocytes and positively modulates glucose and lipid metabolism in non adipose tissues such as liver, muscle etc. Increased adiponectin secretion is desirable and is correlated with whole body insulin sensitivity. Inflammation (inf) in the presence of metabolic overload (pal) caused a decrease in adiponectin secretion in 3T3F442A cells.
# 3T3 L1 cells = experiment: Insulin sensitivity in adipocytes (Western blot p-Akt Thr-308 / total Akt); assay type: cell-based; settings: glucose and palmitate 48 hours, then 10 and 100 nM insulin 15 min, FIG. 2
# Protocol: This was ascertained by treating 3T3 L1 cells with glucose and palmitate (GP) for 48 hours in the presence and absence of TAK-1 inhibitor. Cells were then stimulated with 10 and 100 nM insulin (I) for 15 min, following which they were taken up for Western blot analysis for p-Akt ([…]) and total Akt.
# skeletal muscles = experiment: ROS levels in skeletal muscle cells; assay type: cell-based; settings: different disease conditions, FIG. 17 C
# From the text: (§1) Oxidative stress mediated by both ROS and RNS (NO) is known to impair mitochondrial function and induced insulin resistance in skeletal muscle (FIG. 17). Furthermore, it is also known that metabolic overload and inflammatory signal drives oxidative stress in skeletal muscles.
# skeletal muscle cells = experiment: Mitochondrial biogenesis in skeletal muscle cells (mtND1, mitochondrial DNA copy number, MEF2C); assay type: cell-based; settings: FIG. 18
# [2] = test system: insulin gene, PDX1, IL1b, glucokinase (GCK) and Glut2 (slc2a2); experiment: Gene expression in islet beta cells under inflammatory conditions; assay type: cell-based, rat
# muscle cells = experiment: Mitochondrial activity of muscle cells (reduction of MTT); assay type: cell-based; settings: inflammation and oxidative stress conditions, FIG. 18
# IkB = IkB level in skeletal muscle cells; assay type: cell-based; settings: skeletal muscle cells under inflammatory conditions (Infl), FIG. 14
# From the text: (§2) Taken together, TAK-1 inhibition could lead to decreased JNK and NFkB signaling under metabolic overload and inflammation.
# C2C12 myotubes = experiment: NO release from muscle cells; assay type: cell-based
# From the text: as §1
# JNK [3] = experiment: JNK activation in skeletal muscle cells; assay type: cell-based
# From the text: as §2
# [4] = metabolic overload or inflammation
compound,measurement,setting,value
COc1cc(O)c2c(c1)/C=C/C[C@H](O)[C@H](O)C(=O)/C=C\C[C@H](C)OC2=O [(5Z)-7-Oxozeaenol],activation of JNK,JNK [1],decreased activation of JNK
same,glucose stimulated insulin secretion (GSIS),rat islets,restored GSIS
same,intracellular ROS levels,rat primary hepatocytes,reduced ROS levels
same,TG levels as a measure of adipogenesis,3T3F442A pre adipocytes,partially restored
same,decrease in adiponectin secretion,3T3F442A cells,partially inhibited
same,insulin sensitivity (p-Akt Thr-308 / total Akt),3T3 L1 cells,restored insulin sensitivity
same,ROS levels,skeletal muscles,reduced
same,mitochondrial DNA copy number,skeletal muscle cells; [4],increased mitochondrial DNA copy number
same,muscle enriched transcription factor (MEF2C),skeletal muscle cells; [4],increased
same,expression of mitochondrial genes such as mtND1,skeletal muscle cells; skeletal muscle cells,up-regulate
same,inflammation induced IL1b expression,"[2]; rat islet, FIG. 27",reduce inflammation induced IL1b expression
same,insulin gene and PDX1 expression,"[2]; rat islets, under inflammation, FIG. 26",up-regulate
same,mitochondrial activity (reduction of MTT),muscle cells,increase mitochondrial activity
same,IkB level (NFkB pathway),IkB,increasing IkB level
same,inflammation induced NO release,"C2C12 myotubes; C2C12 myotubes, FIG. 17 A",reduced inflammation induced NO release from C2C12 myotubes in a dose dependent manner
same,NO release,"C2C12 myotubes; skeletal muscles, metabolic overload (high glucose and palmitate) and inflammatory conditions, FIG. 17 B",reduced NO release
same,activation of JNK,"JNK [3]; in response to inflammatory cytokines, FIG. 13",decreased activation of JNK
same,activation of JNK,JNK [3]; in response to metabolic stress (palmitate overload),reduce activation of JNK
